The source of these data is patent US8212024B2, “Crystalline sodium salt of cephalosporin antibiotic” (Orchid Chemicals & Pharmaceuticals Ltd., priority 2005, dated 2012).

Holding throughout (assay type): physicochemical
Data set [1] is described as follows: Hygroscopicity observation. From the text:
Apart from the conventional formulation that are described the Ceftiofur sodium formulation may also contain chelating agent like ethylene diamine tetraacetic acid (EDTA) or a buffer like sodium citrate along with or with out conventional excipient. The pharmaceutical composition may also contain amorphous Ceftiofur sodium along with crystalline Ceftiofur sodium.

A short description of data set [2]: Comparison of physical characteristics: tapped bulk density. From the text: The following Table provides a comparison of physical characteristics of amorphous and crystalline Ceftiofur Sodium. From this table it is evident that the crystalline Ceftiofur Sodium has better physical characteristics than amorphous material. [table]
A short description of data set [3]: Stability at 40 ± 2° C. & 75 ± 5% RH. Particulars: for Assay: in % (unit assumed). From the text: (§1) The following Tables (Table 2 & 3) provide stability data of crystalline Ceftiofur Sodium prepared according to this invention. From this it table it is evident that the crystalline Ceftiofur Sodium prepared according this invention is a very stable and a highly pure material, which is clearly indicated by total RS (Related substances) analysis & the stability data. [table]

Data set [4] is described as follows: Stability at 25 ± 2° C. & 60 ± 5% RH. The note with it: for Assay: in % (unit assumed).
Excerpt: as §1

For the compound `CO/N=C(\C(=O)NC1C(=O)N2C(C(=O)[O-])=C(CSC(=O)c3ccco3)CSC12)c1csc(N)n1.[Na+]` (centres unmarked) [Amorphous Ceftiofur sodium, Ceftiofur sodium, reference compound], the Hygroscopic nature result in data set [1] is “highly hygroscopic”. Also, the “Tapped Bulk density” value in data set [2] is 0.5 g/mL.
For `CO/N=C(\C(=O)N[C@@H]1C(=O)N2C(C(=O)[O-])=C(CSC(=O)c3ccco3)CS[C@H]12)c1csc(N)n1.[Na+]` [Ceftiofur sodium], in data set [1], the Hygroscopic nature result is “non-hygroscopic”.
As to `CO/N=C(\C(=O)NC1C(=O)N2C(C(=O)[O-])=C(CSC(=O)c3ccco3)CSC12)c1csc(N)n1.[Na+]` (centres unmarked) [Crystalline Ceftiofur sodium, Ceftiofur sodium], the Hygroscopic nature entry in data set [1] is listed as “non-hygroscopic”. The “Tapped Bulk density” value in data set [2] amounted to 0.8 g/mL. In addition, the Total RS (Related substances) was 0.93% in data set [3] (2 month); 0.78% in data set [3] (15 days); 0.61% in data set [3] (Initial); 0.75% in data set [4] (1 month); 0.78% in data set [4] (2 month); 0.61% in data set [4] (Initial). Moreover, the Assay in data set [3] (2 month) was 100.61; in data set [3] (15 days) it was 100.64; in data set [3] (Initial) it was 101.25; in data set [4] (1 month), 101.18; in data set [4] (2 month) it was 100.31; in data set [4] (Initial), 101.25.
